System: asymmetric di-methyl PABP1 in RKO cells
Assay: RKO methylation assay, In Cell Western (ICW) for asymmetric di-methyl PABP1
Type: cell-based
Settings: Homo sapiens, RKO, Cellular potencies, ICW PABP1me2a
Procedure, shortened: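 In-cell Western on fixed RKO cells after 48 h compound exposure: anti-asymmetric di-methyl PABP1 signal at 800 nm over DRAQ5 DNA signal at 700 nm. Percent inhibition set between DMSO wells and wells with 20 μM reference compound; IC50 curves fitted in triplicate.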

Structure (SMILES) | IC50 [µM]
CNCC(O)COc1cccc(-c2nc(N[C@@H]3CCOC3)c(C)c(N3C[C@H]4CNC[C@H]4C3)n2)c1 (some centres unmarked) [Example 440-1a] | 10 to 20
CNCC(O)COc1cccc(-c2nc(NC3CCOC3)c(C)c(N3CC(N)CC(Cl)C3)n2)c1 (centres unmarked) [Example 442-1a] | 10 to 20
CNCC(O)COc1cccc(-c2nc(N[C@@H]3CCOC3)c(C)c(N3C[C@H]4C[C@@H]3CN4C)n2)c1 (some centres unmarked) [Example 443-1a] | 10 to 20
CNCC(O)COc1cccc(-c2nc(NC3CCOC3)c(C)c(N3CC4CC(C3)N4)n2)c1 (centres unmarked) [Example 452-1a] | 10 to 20
CNCC(O)COc1cccc(-c2nc(NC3CCOC3)c(C)c(N3CCN(CC(F)F)C(C)(C)C3)n2)c1 (centres unmarked) [Example 457-1a] | 10 to 20
CNCC(O)COc1cccc(-c2nc(N[C@@H]3CCOC3)c(C)c(N3CCC(c4cccnc4)C3)n2)c1 (some centres unmarked) [Example 461-1a] | 10 to 20
CNCC(O)COc1cccc(-c2nc(N[C@@H]3CCOC3)c(C)c(N3CCC4(CCOCC4)C3)n2)c1 (some centres unmarked) [Example 462-1a] | 10 to 20
CNCC(O)COc1cccc(-c2nc(N[C@@H]3CCOC3)c(C)c(N3CC[C@@H](c4cccnc4)C3)n2)c1 (some centres unmarked) [Example 467-1a] | < 5
CNCC(O)COc1cccc(-c2nc(N[C@@H]3CCOC3)c(C)c(N3CCC(n4nc(C)cc4C)C3)n2)c1 (some centres unmarked) [Example 468-1a] | 5 to 10
CNCC(O)COc1cccc(-c2nc(N[C@@H]3CCOC3)c(C)c(N3CCCC4(CN(CC(F)F)C4)C3)n2)c1 (some centres unmarked) [Example 469-1a] | 5 to 10
CNCC(O)COc1cccc(-c2nc(N[C@@H]3CCOC3)c(C)c(N3CCC4(CN(CC(F)F)C4)C3)n2)c1 (some centres unmarked) [Example 475-1a] | 5 to 10
CNCC(O)COc1cccc(-c2nc(-c3cnc4c(C(=O)OC)cnn4c3)cc(N(C)C3CCOCC3)n2)c1 (centres unmarked) [Example 482-1a] | < 5
CNCC(O)COc1cccc(-c2nc(-c3cn(S(C)(=O)=O)c4ncncc34)cc(N(C)C3CCOCC3)n2)c1 (centres unmarked) [Example 483-1a] | < 5
CNCC(O)COc1cccc(-c2nc(-c3cn(C)c4ncncc34)cc(N(C)C3CCOCC3)n2)c1 (centres unmarked) [Example 485-1a] | < 5
CNC[C@H](O)COc1cccc(-c2nc(-c3cnc4cnccn34)cc(N(C)C3CCOCC3)n2)c1 [Example 486-1a] | < 5
CNCC(O)COc1cccc(-c2nc(N(C)c3cncnc3)cc(N(C)C3CCOCC3)n2)c1 (centres unmarked) [Example 487-1a] | < 5

Structure (SMILES) | IC50 [µM]
CNC[C@@H](O)COc1cccc(-c2nc(-c3cn(S(C)(=O)=O)c4ncncc34)c(C)c(N(C)C3CCOCC3)n2)c1 [Example 488-1a] | < 5
CNCC(O)COc1cccc(-c2nc(-c3cnc4ncccn34)cc(N(C)C3CCOCC3)n2)c1 (centres unmarked) [Example 489-1a] | < 5
CNCC(O)COc1cccc(-c2nc(-c3cnc4cnccn34)cc(N(C)C3CCOCC3)n2)c1 (centres unmarked) [Example 490-1a] | < 5
CNCC(O)COc1cccc(-c2nc(-c3ncc(C)n3C)cc(N(C)C3CCOCC3)n2)c1 (centres unmarked) [Example 491-1a] | < 5
CNCC(O)COc1cc(OC)cc(-c2nc(-c3cnc4cnccn34)cc(N(C)C3CCOCC3)n2)c1 (centres unmarked) [Example 492-1a] | < 5
CNCC(O)COc1cccc(-c2nc(-c3csnc3C)cc(N(C)C3CCOCC3)n2)c1 (centres unmarked) [Example 493-1a] | < 5
CNCC(O)COc1cccc(-c2nc(-c3scnc3C)cc(N(C)C3CCOCC3)n2)c1 (centres unmarked) [Example 495-1a] | < 5
CNCC(O)COc1cccc(-c2nc(-c3c(C)nn(C(C)C)c3C)cc(N(C)C3CCOCC3)n2)c1 (centres unmarked) [Example 496-1a] | < 5
CNCC(O)COc1cccc(-c2nc(-c3ccnc(C#N)c3)cc(N(C)C3CCOCC3)n2)c1 (centres unmarked) [Example 498-1a] | < 5
CNCC(O)COc1cccc(-c2nc(-c3ccc(S(C)(=O)=O)cc3)cc(N(C)C3CCOCC3)n2)c1 (centres unmarked) [Example 499-1a] | < 5
CNCC(O)COc1cccc(-c2nc(N3CCOCC3)c(F)c(N(C)C3CCOCC3)n2)c1 (centres unmarked) [Example 500-1a] | < 5
CNCC(O)COc1cccc(-c2nc(-c3cn(C)cn3)cc(N(C)C3CCOCC3)n2)c1 (centres unmarked) [Example 501-1a] | < 5
CNCC(O)COc1cccc(-c2nc(N3CCN(C)[C@@H](C)C3)cc(N(C)C3CCOCC3)n2)c1 (some centres unmarked) [Example 502-1a] | < 5
CNCC(O)COc1cccc(-c2nc(-c3ccnc(C(C)(C)O)c3)cc(N(C)C3CCOCC3)n2)c1 (centres unmarked) [Example 503-1a] | < 5
CNCC(O)COc1cccc(-c2nc(-c3c[nH]c4ncncc34)cc(N(C)C3CCOCC3)n2)c1 (centres unmarked) [Example 504-1a] | < 5

Second part, the compound after the results:

IC50 [µM] | Structure (SMILES)
10 to 20 | CNCC(O)COc1cccc(-c2nc(N[C@@H]3CCOC3)c(C)c(N3CCN(C)C(=O)C3)n2)c1 (some centres unmarked) [Example 435-1a]
< 5 | CNCC(O)COc1cccc(-c2nc(N[C@@H]3CCOC3)c(C)c(N3CCN(C4CC4)CC3)n2)c1 (some centres unmarked) [Example 436-1a]
5 to 10 | CNCC(O)COc1cccc(-c2nc(N[C@@H]3CCOC3)c(C)c(N3CC[C@@H](O)C3)n2)c1 (some centres unmarked) [Example 437-1a]
5 to 10 | CNCC(O)COc1cccc(-c2nc(N[C@@H]3CCOC3)c(C)c(N3CCN(C(C)=O)C(C)(C)C3)n2)c1 (some centres unmarked) [Example 439-1a]
5 to 10 | CNCC(O)COc1cccc(-c2nc(N[C@@H]3CCOC3)c(C)c(N3CCC(S(C)(=O)=O)CC3)n2)c1 (some centres unmarked) [Example 441-1a]
< 5 | CNCC(O)COc1cccc(-c2nc(NC3CCOC3)c(C)c(N3CCN(CCF)CC3)n2)c1 (centres unmarked) [Example 446-1a]
10 to 20 | CNCC(O)COc1cccc(-c2nc(NC3CCOC3)c(C)c(N3CCN(C(=O)OC)C(C)(C)C3)n2)c1 (centres unmarked) [Example 447-1a]
< 5 | CCS(=O)(=O)N1CCN(c2nc(-c3cccc(OCC(O)CNC)c3)nc(NC3CCOC3)c2C)CC1(C)C (centres unmarked) [Example 448-1a]
< 5 | CNCC(O)COc1cccc(-c2nc(NC3CCOC3)c(C)c(N3CCN(CC(F)(F)F)CC3)n2)c1 (centres unmarked) [Example 449-1a]
5 to 10 | CNCC(O)COc1cccc(-c2nc(NC3CCOC3)c(C)c(N3CCN4C(=O)OC[C@@H]4C3)n2)c1 (some centres unmarked) [Example 454-1a]
< 5 | CNCC(O)COc1cccc(-c2nc(NC3CCOC3)c(C)c(N3CCN(C)C(C)(C)C3)n2)c1 (centres unmarked) [Example 455-1a]
< 5 | CCOC(=O)N1CCN(c2nc(-c3cccc(OCC(O)CNC)c3)nc(N[C@@H]3CCOC3)c2C)CC1 (some centres unmarked) [Example 456-1a]
< 5 | CNCC(O)COc1cccc(-c2nc(N[C@@H]3CCOC3)c(C)c(N3CCN(CC(F)F)CC3)n2)c1 (some centres unmarked) [Example 458-1a]
< 5 | CNCC(O)COc1cccc(-c2nc(N[C@@H]3CCOC3)c(C)c(N3CCN(C)[C@H](C)C3)n2)c1 (some centres unmarked) [Example 463-1a]
< 5 | CCS(=O)(=O)N1CCN(c2nc(-c3cccc(OCC(O)CNC)c3)nc(N[C@@H]3CCOC3)c2C)CC1 (some centres unmarked) [Example 464-1a]
< 5 | CNCC(O)COc1cccc(-c2nc(N[C@@H]3CCOC3)c(C)c(N3Cc4nc(C)sc4C3)n2)c1 (some centres unmarked) [Example 465-1a]
< 5 | CNCC(O)COc1cccc(-c2nc(N[C@@H]3CCOC3)c(C)c(N3CCN(C4CC4)[C@H](C)C3)n2)c1 (some centres unmarked) [Example 466-1a]
< 5 | CCOC(=O)N1CCN(c2nc(-c3cccc(OCC(O)CNC)c3)nc(N[C@@H]3CCOC3)c2C)C[C@H]1C (some centres unmarked) [Example 470-1a]
< 5 | CNCC(O)COc1cccc(-c2nc(N[C@@H]3CCOC3)c(C)c(N3CCN(CC(F)F)[C@H](C)C3)n2)c1 (some centres unmarked) [Example 471-1a]
